Data from PubChem BioAssay AID2305 (GlaxoSmithKline (GSK), 2010).
Where “and” joins values, the source holds several entries; their conditions need not be identical. Identical values can stand only once.

Test system: P. falciparum 3D7 growth, pLDH absorbance
Assay: P. falciparum 3D7 growth inhibition, dose response, strain 3D7 (AID 2305)

Row | Structure (SMILES) | IC50
1 | COc1ccc(Cl)cc1N1CCN(CCCNC(=O)c2ccc(-c3nc4cc(Cl)c(F)cc4[nH]3)s2)CC1 | 310 nM
2 | COc1ccc(OC)c(-c2cccc(-c3cccc(NC(=O)c4ccc([N+](=O)[O-])o4)c3)n2)c1 | 370 nM
3 | Cc1[nH]c(C)c(-c2ccc(-c3ccccc3F)nc2)c(=O)c1Cl | 250 nM
4 | COc1cc(Nc2nc(N)c3cc(OC)c(OC)cc3n2)cc(OC)c1 | 270 nM
5 | Cc1ccccc1CNCC(O)c1cccc(C(F)(F)F)c1 (configuration not stated) | 880 nM
6 | O=C(Nc1cccc(C(F)(F)F)c1)Nc1ccc(F)c([N+](=O)[O-])c1 | 700 nM
7 | CC(Cc1ccc(NC(=O)c2ccc(CNCCc3ccccc3)cc2)cc1)NCCc1cccc(Cl)c1 (configuration not stated) | 350 nM
8 | Cc1onc(-c2ccc(Cl)cc2)c1-c1ccnn1S(=O)(=O)c1ccc(Cl)cc1 | 710 nM
9 | CCN(CCCN1CCCCC1)c1cc(C)nc(Nc2cc(C(F)(F)F)ccc2C)n1 | 860 nM
10 | CCN(CC)CCNc1cc(C)nc(/N=C(\N)Nc2ccc(Cl)cc2)n1 | 130 nM
11 | CCN(CC)CCN(Cc1ccc(-c2ccc(C(F)(F)F)cc2)cc1)C(=O)Cn1c(CCc2ccccc2F)nc(=O)c2ccccc21 | 930 nM
12 | Cc1cc(N2CCCCC2)nc2ccc(NC(=O)c3cncc(Br)c3)cc12 | 720 nM
13 | Cc1cccc2[nH]c(-c3ccc(-c4cccc(CNCCCNS(C)(=O)=O)c4)s3)nc12 | 1020 nM
14 | CC(C)n1c(C2CCN(CC3CCN(C(=O)/C=C/c4ccc(Cl)c(Cl)c4)CC3)CC2)nc2ccccc21 | 1030 nM
15 | Cc1c(C)n(Cc2ccccc2)c2ncnc(OC3CCN(CC(=O)NCC4CC4)CC3)c12 | 1120 nM
16 | CCCN=CNc1cc(-c2csc(N=C(N)N)n2)cc([N+](=O)[O-])c1 | 1740 nM
17 | O=C(/C=C/c1ccc(Cl)c(Cl)c1)NC1CCN(CCNC(=O)c2cccc(Cl)c2)CC1 | 550 nM
18 | COc1ccc(Cn2c(Nc3cccc(C(F)(F)F)c3)nc3cc(C(=O)NCCN4CCCC4)cnc32)cc1Cl | 920 nM
19 | O=C(Nc1cccc(-c2ccc(CN3CCCC3)cc2)c1)c1cccc(Cl)c1 | 430 nM
20 | FC(F)(F)c1ccc2c(C=Cc3ccncc3)c[nH]c2c1 | 710 nM
21 | Nc1cccc(CNCc2ccc(-c3cccc(-c4nc5ccc(F)cc5[nH]4)c3)cc2)c1 | 210 nM
22 | COc1ccc(-c2cccc(NC(=O)c3ccc(F)cc3)c2)cc1CNC(C)C | 1380 nM
23 | O=C(C=Cc1ccc(F)cc1)NC1CCC(CCN2CCc3ccc(-c4cnccn4)cc3CC2)CC1 (configuration not stated) | 690 nM
24 | COC(=O)CCCCOc1c(OC)cc(Cc2cnc(N)nc2N)cc1OC | 40 nM
25 | COc1ccc(CNCc2ccc(-c3cccc(-c4nc5c(C)cccc5[nH]4)c3)cc2)cc1 | 130 nM

Row | Structure (SMILES) | IC50
26 | Cc1cc(OCCCN2CCCCC2C)ccc1NC(=O)COc1ccc(Cl)cc1C(=O)c1cc(Cl)cc(C#N)c1 (configuration not stated) | 980 nM
27 | O=C(/C=C/c1ccc(Cl)c(Cl)c1)NC1[C@@H]2CC[C@H]1CC(CN1CCC(c3c[nH]c4ccccc34)CC1)C2 (some centres not stated) | 200 nM
28 | CCOC(=O)NC1=NC(C)(C)N(OCc2ccc(Cl)c(Cl)c2)C(NC(=O)OCC)=N1 | 280 nM
29 | CCN1CCC(N(Cc2ccc(-c3ccc(C(F)(F)F)cc3)cc2)C(=O)Cn2c(CCc3cccc(F)c3F)cc(=O)c3ccccc32)CC1 | 830 nM
30 | CNc1ccc(CNCc2cccc(-c3ccc(-c4nc5c(C)cccc5[nH]4)cc3)c2)cc1 | 660 nM
31 | NC(N)=Nc1ccc(OCCCCCOc2ccc(N=C(N)N)cc2Br)c(Br)c1 | 260 nM
32 | OCC1CCN(Cc2cccc(C#Cc3cc4ncnc(Nc5ccc(OCc6cccc(F)c6)c(Cl)c5)c4s3)n2)CC1 | 550 nM
33 | CCCCCCCCOc1c(OCC)cc(Cc2cnc(N)nc2N)cc1OCC | 1530 nM
34 | COc1cc(F)c2ncc(F)c([C@@H](O)CN3CCC(NCc4cc5c(cn4)OCCO5)CC3)c2c1 | 480 nM
35 | Cc1cc(NN=Cc2ccccc2Cl)c2ccccc2n1 | 900 nM
36 | CC(C)N1CCC(N(Cc2ccc(-c3ccc(C(F)(F)F)cc3)cc2)C(=O)Cn2c(CCc3cccc(F)c3F)cc(=O)c3ccccc32)CC1 | 850 nM
37 | Cc1cc(NN=Cc2ccccc2F)c2ccccc2n1 | 920 nM
38 | COc1cc2nc(N3CCC(CNC(=O)/C=C/c4ccccc4F)CC3)nc(N)c2cc1OC | 580 nM
39 | C#CCN1CCC2=C(C1)c1c(O)cc(C(C)CCCc3ccc(F)cc3)cc1OC2(C)C (configuration not stated) | 730 nM
40 | CN(C)C(=O)c1ccc(CN(Cc2ccc3c(c2)OCCO3)Cc2ccc3c(c2)OCO3)cc1 | 180 nM
41 | CC(C)CCN1CCC(Oc2ccc(NC(=O)c3ccc(F)cc3)cc2Cl)CC1 | 720 nM
42 | Clc1ncnc2scc(-c3ccc(Br)cc3)c12 | 890 nM
43 | COc1ccc2c(c1)CC(CNC[C@H](O)c1cccc(Cl)c1)CC2 (some centres not stated) | 990 nM
44 | Oc1c(C=Nn2cnnc2)sc2ccccc12 | 910 nM
45 | Cc1cccc2c(C3CCN(CC4CCC(NC(=O)/C=C/c5ccc(Cl)c(Cl)c5)CC4)CC3)c[nH]c12 (configuration not stated) | 1030 nM
46 | N#CC1(c2ccccc2)CCN(c2nc(NCCCN3CCCC3=O)nc(N3CCCC4CCCCC43)n2)CC1 (configuration not stated) | 860 nM
47 | Cc1[nH]c2ccccc2c1C1=CCN(CCCCCNC(=O)/C=C/c2ccc(Cl)c(Cl)c2)CC1 | 270 nM
48 | Cc1cc2nc(-c3ccc(C(=O)NCc4ccc(Cl)c(Cl)c4)cc3)[nH]c2cc1C | 830 nM
49 | COc1cccc(CN(C(=O)Nc2ccccc2F)[C@H]2C[C@H]3C(=O)Nc4cc(F)ccc4C(=O)N3C2)c1 | 840 nM
50 | Cc1ccccc1OCCCN1CCN(CC(c2ccc(F)cc2)N2CCN(C(C)C)CC2)CC1 (configuration not stated) | 1410 nM

Row | Structure (SMILES) | IC50
51 | CO/C(=C\C=C\c1cc2cc(Cl)c(Cl)cc2[nH]1)C(=O)NCCCN(C)CCN(C)c1ccccc1 | 830 nM
52 | Cc1cc(-c2cccc(CNCCc3ccc(Cl)cc3)c2)cnc1N | 1100 nM
53 | CCCCn1c(N)c(N(Cc2ccco2)C(=O)C=Cc2cc(OC)c3c(c2)OCCO3)c(=O)[nH]c1=O | 950 nM
54 | CN(CCN)Cc1cccc(-c2cccc(-c3nc4ccc(F)cc4[nH]3)c2)c1 | 790 nM
55 | COc1ccc(-c2nc(NC(=O)Cc3ccc(OC)c(OC)c3)sc2C)cc1 | 1160 nM
56 | Cc1nc(-c2nc(N3CCC(O)CC3)ncc2-c2ccsc2)sc1C | 940 nM
57 | Cc1cc(Nc2ccc(O)cc2)nc2cccc(O)c12 | 740 nM
58 | Cc1cc(NCCC(=O)NCCc2ccccc2)nc(NCCc2ccc(F)cc2)n1 | 1080 nM
59 | CNC(=O)NC1=NC(C)(C)N(OCCCOc2cc(Cl)c(Cl)cc2Cl)C(N)=N1 | 930 nM
60 | O=C(C=Cc1ccccc1Br)NC1CCC(CN2CCC(c3c[nH]c4ccccc34)CC2)CC1 (configuration not stated) | 740 nM and 690 nM
61 | Cc1ccc(O)cc1Nc1ccnc2ccc(-c3cccc(CNCCN(C)C)c3)cc12 | 610 nM
62 | N[C@@H](CCNC1CCN(c2cccc(C(F)(F)F)c2)CC1)Cc1ccc(F)c(F)c1 | 1290 nM
63 | O=[N+]([O-])c1cccc(CNCC2CCN(Cc3ccc(O)cc3)CC2)c1 | 670 nM
64 | CN(C)CCCN(C)C(=O)c1cc2cc(-c3ccccc3)ccc2n1S(=O)(=O)c1ccccc1 | 460 nM
65 | CC(Cc1ccc(NC(=O)[C@H](C)NCCc2cccc(Cl)c2)cc1)NCCc1cccc(Cl)c1 (some centres not stated) | 660 nM
66 | CS(=O)(=O)c1ccc2c(c1)CCN(CCC1CCC(NC(=O)C(=Cc3cccc(C#N)c3)c3ccc(-c4ccccc4)cc3)CC1)CC2 (configuration not stated) | 840 nM
67 | CCN(CC)C(=S)N=Nc1c(O)[nH]c2c(C)cccc12 | 860 nM
68 | COc1ccc2nccc([C@@H](O)CN3CCC(NCc4nc5ccccc5[nH]4)CC3)c2c1 | 1070 nM
69 | O=C(/C=C/c1ccc(Cl)c(Cl)c1)N1CCC(CCN2CCC(c3c[nH]c4ccccc34)CC2)CC1 | 600 nM
70 | CC(=O)Nc1ccc(C#Cc2ccc(-c3c(C)[nH]c(C)c(Cl)c3=O)cc2)cc1 | 460 nM
71 | O=C(CSc1ccc(Cl)cc1)NC1CCC(CN2CCC(c3c[nH]c4ccccc34)CC2)CC1 (configuration not stated) | 930 nM
72 | COc1ccc(NC(=O)/C=C/c2ccc(-c3ccc(-c4noc(C)n4)cc3)cc2)cc1OCCN(C)C | 1370 nM
73 | N=c1n(CCN2CCCCC2)c2ccccc2n1CC(O)c1cccc(Br)c1 (configuration not stated) | 1140 nM
74 | CCOc1ccc2nc(C)cc(NN=Cc3ccccc3Cl)c2c1 | 190 nM
75 | CC(=O)Nc1ccc(OCCCCN(Cc2ccccc2OC(F)(F)F)c2ccc(C(F)(F)F)c(C#N)c2)c(Cl)c1 | 530 nM

Row | Structure (SMILES) | IC50
76 | OC1CCCN(Cc2cccc(-c3ccc(-c4nc5ccc(F)cc5[nH]4)cc3)c2)C1 (configuration not stated) | 780 nM
77 | O=C(/C=C/c1ccc(Cl)c(Cl)c1)NCCCCCN1CCC(CCNC(=O)/C=C/c2ccccc2F)CC1 | 870 nM
78 | CC(=O)Nc1nc(C)c(-c2csc(Nc3ccc(Cl)cc3)n2)s1 | 260 nM
79 | CN1CCN(c2nc(NCCc3ccc(O)cc3)nc(NCc3ccccc3-c3ccc(C(F)(F)F)cc3)n2)CC1 | 970 nM
80 | CCCC1(NC[C@@H](O)[C@H](Cc2ccccc2)NC(=O)c2cc(NCC)cc(N3CCCCS3(=O)=O)c2)CC1 | 1080 nM
81 | CN(C)Cc1cccc(-c2cc3c(-c4cnn(C)c4)c(Cl)cnc3[nH]2)c1 | 910 nM
82 | O=C(CCc1cnc[nH]1)Nc1cccc(-c2ccc(-c3nc4ccccc4[nH]3)s2)c1 | 760 nM
83 | CC1(C)Cc2c([nH]c3ccccc23)C(CCCCCCCCC2=NC(C)(C)Cc3c2[nH]c2ccccc32)=N1 | 930 nM
84 | Cc1nc2ccc(/C=C/C(=O)NC3CCC(CCN4CCc5ccc(C#N)cc5CC4)CC3)cc2[nH]1 (configuration not stated) | 1140 nM
85 | CC(C)N(CCOc1ccc2c(c1)N(C(=O)Nc1cc(Br)cc(C(F)(F)F)c1)CC2)C(C)C | 110 nM
86 | O=C(Nc1cccc(-c2ccc(-c3nc4ccc(F)cc4[nH]3)s2)c1)c1cccnc1 | 610 nM
87 | COc1cc(-c2cnc(N)c(-c3nc4ccccc4[nH]3)c2)cc(OC)c1OC | 190 nM
88 | CCC(C)OC(=O)C1=C(C)NC2=C(C(=O)CC(c3ccc(OC)c(OC)c3)C2)C1c1ccc(C)o1 (configuration not stated) | 900 nM
89 | Cc1cc(C)c(CC(C)NCC(O)c2cccc(C(F)(F)F)c2)c(C)c1 (configuration not stated) | 570 nM
90 | CCC(NC[C@@H](O)[C@H](Cc1ccccc1)NC(=O)c1cc(C2CCCC2)cc(N2CCCC2=O)c1)c1cccc(Cl)c1 (some centres not stated) | 40 nM
91 | CN(CCN(C)C(=O)NCc1ccccc1)C(=O)NCc1ccccc1 | 930 nM
92 | Cc1ccc(NC(=O)c2ccc(CN3CCCN(CCC(C)C)CC3)cc2)cc1C | 910 nM
93 | CS(=O)(=O)c1cc2c(Nc3ccc(N4CCOCC4)cc3)c(C(N)=O)cnc2cc1Br | 250 nM
94 | CCC/C=C/c1c(CNCCCNc2cc(=O)c3ccccc3[nH]2)sc(CC)c1Br | 890 nM
95 | COc1cc(Nc2nccc(N3CCC(NC(=O)C4COc5ccccc5O4)C3)n2)cc(OC)c1OC (configuration not stated) | 920 nM
96 | CCc1ccc(NC(=O)c2ccc(CN3CCCN(Cc4ccc(C)s4)CC3)cc2)cc1 | 1150 nM
97 | O=C(N[C@H]1CCCC[C@H]1C(=O)O)c1ccccc1 | 780 nM
